In patent US10954216B2, “BMP-signal-inhibiting compound” (RIKEN, priority 2016, dated 2021):

system: BMP signal in MDA-231-D-BREFluc/Rluc cells; assay: BMP signal inhibitory effect (AlphaScreen SureFire SMAD1 p-Ser463/465, BMP-6 stimulation); assay type: cell-based; settings: not given
Method: BMP Signal Inhibitory Effect
A BMP signal inhibitory activity of a compound of the present invention was evaluated according to the following method.
MDA-231-D-BREFluc/Rluc cells prepared according to the method described in Y. Katsuno et al., Oncogene, 27, 6322 (2008) were incubated at 37° C. for 2 hours together with test compounds, and BMP-6 (commercially available from R&D System, 507-BM-020) was then added thereto, and the mixture was additionally incubated at 37° C. for 30 minutes. A Lysis Buffer and Acceptor mix of AlphaScreen SureFire SMAD1 (p-Ser463/465) assay kit (commercially available from Perkin Elmer, TGRSM1S10K) were sequentially added thereto, the mixture was incubated at room temperature for 2 hours, and AlphaScreen Protein A kit (commercially available from Perkin Elmer, 6760617) was then added thereto, and standard AlphaScreen settings of Alpha Technology—compatible plate reader (commercially available from Perkin Elmer, EnSpire) was used for measurement.

Structure (SMILES)	IC50
CCn1cc(-c2ccnc(Nc3ccc(C4CC5CCC(C4)N5CCOC)cc3)n2)c(-c2cccnc2)n1 (centres unmarked) [Example 85, 4-(1-Ethyl-3-(pyridin-3-yl)-1H-pyrazol-4-yl)-N-(4-(8-(2-methoxyethyl)-8-azabicyclo [3.2.1]octan-3-yl)phenyl)pyrimidin-2-amine]	0.0073 µM
CCn1cc(-c2ccnc(Nc3ccc(N4CC5CCC(C4)N5CCOC)cc3)n2)c(-c2cccnc2)n1 [Example 86, 4-(1-Ethyl-3-(pyridin-3-yl)-1H-pyrazol-4-yl)-N-(4-(8-(2-methoxyethyl)-3,8-diazabicyclo[3.2.1]octan-3-yl)phenyl)pyrimidin-2-amine]	0.0129 µM

same assay, conditions: BMP-6 stimulated MDA-231-D-BREFluc/Rluc cells, phospho-SMAD1 AlphaScreen; read-out: IC50

Structure (SMILES)	IC50
CCn1cc(-c2ccnc(Nc3ccc(N4CCN(CCOC)CC4)c(C#N)c3)n2)c(-c2cccnc2)n1 [Example 83, 5-((4-(1-Ethyl-3-(pyridin-3-yl)-1H-pyrazol-4-yl)pyrimidin-2-yl)amino)-2-(4-(2-methoxyethyl)piperazin-1-yl)benzonitrile]	0.0143 µM
CCn1cc(-c2ccnc(Nc3ccc(N4CCN(CCOC)CC4)nc3)n2)c(-c2cccnc2)n1 [Example 84, 4-(1-Ethyl-3-(pyridin-3-yl)-1H-pyrazol-4-yl)-N-(6-(4-(2-methoxyethyl)piperazin-1-yl)pyridin-3-yl)pyrimidin-2-amine]	0.0193 µM
CCn1cc(-c2ccnc(Nc3ccc(N4CCN(CC(N)=O)CC4)cc3)n2)c(-c2cccnc2)n1 [Example 87, 2-(4-(4-((4-(1-Ethyl-3-(pyridin-3-yl)-1H-pyrazol-4-yl)pyrimidin-2-yl)amino)phenyl)piperazin-1-yl)acetamide]	0.0297 µM
CCn1cc(-c2ccnc(Nc3ccc4c(c3)CN(CC3CCCO3)CC4)n2)c(-c2cccnc2)n1 (centres unmarked) [Example 88, N-(4-(1-Ethyl-3-(pyridin-3-yl)-1H-pyrazol-4-yl)pyrimidin-2-yl)-2-((tetrahydrofuran-2-yl)methyl)-1,2,3,4-tetrahydroisoquinolin-7-amine]	0.0055 µM
CCn1cc(-c2ccnc(Nc3ccc4c(c3)CCN(CC3CCCO3)C4)n2)c(-c2cccnc2)n1 (centres unmarked) [Example 89, N-(4-(1-Ethyl-3-(pyridin-3-yl)-1H-pyrazol-4-yl)pyrimidin-2-yl)-2-((tetrahydrofuran-2-yl)methyl)-1,2,3,4-tetrahydroisoquinolin-6-amine]	0.0057 µM
CCn1cc(-c2ccnc(Nc3ccc4c(c3)CCN(CC(N)=O)C4)n2)c(-c2cccnc2)n1 [Example 90, 2-(6-((4-(1-Ethyl-3-(pyridin-3-yl)-1H-pyrazol-4-yl)pyrimidin-2-yl)amino)-3,4-dihydroisoquinolin-2(1H)-yl)acetamide]	0.0216 µM
CCn1cc(-c2ccnc(Nc3ccc4c(c3)OCCN(CCOC)C4)n2)c(-c2cccnc2)n1 [Example 91, N-(4-(l-Ethyl-3-(pyridin-3-yl)-1H-pyrazol-4-yl)pyrimidin-2-yl)-4-(2-methoxyethyl)-2,3,4,5-tetrahydrobenzo[f][1,4] oxazepin-8-amine]	0.0213 µM

Second part, the compound after the results:

IC50	Structure (SMILES)
0.0119 µM	CCn1cc(-c2ccnc(Nc3ccc(OC4CN(CCOC)C4)cc3)n2)c(-c2cccnc2)n1 [Example 92, 4-(1-Ethyl-3-(pyridin-3-yl)-1H-pyrazol-4-yl)-N-(4-((1-(2-methoxyethyl)azetidin-3-yl)oxy)phenyl) pyrimidin-2-amine]
0.0038 µM	CCn1cc(-c2ccnc(Nc3ccc4c(c3)CCN(CCOC)CC4)n2)c(-c2cccnc2)n1 [Example 93, N-(4-(1-Ethyl-3-(pyridin-3-yl)-1H-pyrazol-4-yl)pyrimidin-2-yl)-3-(2-methoxyethyl)-2,3,4,5-tetrahydro-1H-benzo [d] azepin-7-amine]
0.0243 µM	CCn1cc(-c2ccnc(Nc3ccc(N4CCCN(CCOC)CC4)cc3)n2)c(-c2cccnc2)n1 [Example 94, 4-(1-Ethyl-3-(pyridin-3-yl)-1H-pyrazol-4-yl)-N-(4-(4-(2-methoxyethyl)-1,4-diazepan-1-yl)phenyl)pyrimidin-2-amine]
0.0148 µM	CCn1cc(-c2ccnc(Nc3ccc4c(c3)CCN(C3COC3)C4)n2)c(-c2cccnc2)n1 [Example 95, N-(4-(1-Ethyl-3-(pyridin-3-yl)-1H-pyrazol-4-yl)pyrimidin-2-yl)-2-(oxetan-3-yl)-1,2,3,4-tetrahydroisoquinolin-6-amine]
0.0209 µM	CCn1cc(-c2ccnc(Nc3ccc(N4CCN(CC5CC(C)(C)O5)CC4)cc3)n2)c(-c2cccnc2)n1 (centres unmarked) [Example 96, N-(4-(4-((4,4-dimethyloxetan-2-yl)methyl)piperazin-1-yl)phenyl)-4-(1-ethyl-3-(pyridin-3-yl)-1H-pyrazol-4-yl)pyrimidin-2-amine]
0.0152 µM	CCn1cc(-c2ccnc(Nc3ccc(N4CCN(CC5CCOC5)CC4)cc3)n2)c(-c2cccnc2)n1 (centres unmarked) [Example 97, 4-(1-Ethyl-3-(pyridin-3-yl)-1H-pyrazol-4-yl)-N-(4-(4-((tetrahydrofuran-3-yl)methyl)piperazin-1-yl)phenyl)pyrimidin-2-amine]
0.0234 µM	CCn1cc(-c2ccnc(Nc3ccc(N4CCN(CC5(C)COC5)CC4)cc3)n2)c(-c2cccnc2)n1 [Example 98, 4-(1-ethyl-3-(pyridin-3-yl)-1H-pyrazol-4-yl)-N-(4-(4-((3-methyloxetan-3-yl)methyl)piperazin-1-yl)phenyl)pyrimidin-2-amine]
0.02 µM	CCn1cc(-c2ccnc(Nc3ccc(N4CCN(CC5COC5)CC4)cc3)n2)c(-c2cccnc2)n1 [Example 99, 4-(1-Ethyl-3-(pyridin-3-yl)-1H-pyrazol-4-yl)-N-(4-(4-(oxetan-3-ylmethyl)piperazin-1-yl)phenyl)pyrimidin-2-amine]
0.0186 µM	CCn1cc(-c2ccnc(Nc3ccc(C4CCCN(CCOC)C4)cc3)n2)c(-c2cccnc2)n1 (centres unmarked) [Example 100, 4-(1-Ethyl-3-(pyridin-3-yl)-1H-pyrazol-4-yl)-N-(4-(1-(2-methoxyethyl)piperidin-3-yl)phenyl)pyrimidin-2-amine]
0.0504 µM	COCCN1CCN(c2ccc(Nc3nccc(-c4cn(CC5COC5)nc4-c4cccnc4)n3)cc2)CC1 [Example 102, N-(4-(4-(2-Methoxyethyl)piperazin-1-yl)phenyl)-4-(1-(oxetan-3-ylmethyl)-3-(pyridin-3-yl)-1H-pyrazol-4-yl)pyrimidin-2-amine]
0.0104 µM	c1cncc(-c2nn(C3COC3)cc2-c2ccnc(Nc3ccc(N4CCN(CC5CC5)CC4)cc3)n2)c1 [Example 103, N-(4-(4-(Cyclopropylmethyl)piperazin-1-yl)phenyl)-4-(1-(oxetan-3-yl)-3-(pyridin-3-yl)-1H-pyrazol-4-yl)pyrimidin-2-amine]
0.0337 µM	CCn1cc(-c2ccnc(Nc3ccc(N4CCN(CC(O)COC)CC4)cc3)n2)c(-c2cccnc2)n1 (centres unmarked) [Example 105, 1-(4-(4-((4-(1-Ethyl-3-(pyridin-3-yl)-1H-pyrazol-4-yl)pyrimidin-2-yl)amino)phenyl)piperazin-1-yl)-3-methoxypropan-2-ol]
0.0035 µM	CCn1cc(-c2ccnc(Nc3ccc4c(c3)CN(CC(C)(C)O)CC4)n2)c(-c2cccnc2)n1 [Example 106, 1-(7-((4-(1-Ethyl-3-(pyridin-3-yl)-1H-pyrazol-4-yl)pyrimidin-2-yl)amino)-3,4-dihydroisoquinolin-2(1H)-yl)-2-methylpropan-2-ol]
0.0244 µM	COCCn1cc(-c2ccnc(Nc3ccc(OC4CN(CC(C)(C)O)C4)cc3)n2)c(-c2cccnc2)n1 [Example 107, 1-(3-(4-((4-(1-(2-Methoxyethyl)-3-(pyridin-3-yl)-1H-pyrazol-4-yl)pyrimidin-2-yl)amino)phenoxy)azetidin-1-yl)-2-methylpropan-2-ol]
